This passage reports ED50 results from ChEMBL document CHEMBL1126088, “Conformational analysis of dopamine D-2 receptor antagonists of the benzamide series in relation to a recently proposed D-2 receptor-interaction model” (J Med Chem, 1992).

The assay can be described thus: Effective dose of the compound. The assay is classed as functional.
By ED50 is commonly meant the dose that gives a 50% effect, or the effect in half of the subjects. The low end stands for an effect at a small dose, the high end for a need for a large dose. As to `COc1cc(N)c(Cl)cc1C(=O)NC1CCN2CC(c3ccccc3)CC2C1` (stereo not drawn), the 50% effect level (ED50) was put at a dose of 0.024 mg/kg.
With `COc1cc(N)c(Cl)cc1C(=O)NC1CCN(Cc2ccccc2)CC1` [CLEBOPRIDE] the figure was 0.037 mg/kg; with `CCN(CC)CCNC(=O)c1cc(Cl)c(N)cc1OC` [METOCLOPRAMIDE], 0.75 mg/kg.
